Data reported in BindingDB's records for doi:10.1074/jbc.M113.497990 (Vanderbilt University, 2013).
pIC50, pKd: −log10 of the molar value.

Legend:
Cytochrome P450 1A2 = biological target: T1, Cytochrome P450 1A2 (Homo sapiens, UniProt P05177); assay: CYP Activity Assay; settings: 37 °C
T1 sequence (P05177 whole entry): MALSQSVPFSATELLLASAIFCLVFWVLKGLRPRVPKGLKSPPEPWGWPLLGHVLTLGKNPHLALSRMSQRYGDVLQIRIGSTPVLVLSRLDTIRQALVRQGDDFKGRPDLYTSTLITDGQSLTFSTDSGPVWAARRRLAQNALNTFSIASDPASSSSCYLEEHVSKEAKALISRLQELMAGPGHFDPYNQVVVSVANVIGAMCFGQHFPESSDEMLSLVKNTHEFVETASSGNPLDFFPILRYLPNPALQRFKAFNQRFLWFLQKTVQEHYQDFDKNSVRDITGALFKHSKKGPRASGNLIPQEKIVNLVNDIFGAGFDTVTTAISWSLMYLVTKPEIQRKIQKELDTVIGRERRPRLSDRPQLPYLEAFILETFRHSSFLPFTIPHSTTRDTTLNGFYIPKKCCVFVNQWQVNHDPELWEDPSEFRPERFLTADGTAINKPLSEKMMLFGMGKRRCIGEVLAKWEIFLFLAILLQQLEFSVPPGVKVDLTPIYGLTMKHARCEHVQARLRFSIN
Experimental: (§1) Inhibition of hepatic cytochromes P450 was assessed in human liver microsomes using a substrate-specific approach of monitoring metabolites formed by each specific CYP enzyme. Metabolic reactions included phenacetin-O-deethylation (1A2), tolbutamide methylhydroxylation (2C9), S-mephenytoin 4'-hydroxylation (2C19), dextrome-thorphan-[…] (2D6), and testosterone-6-β-hydroxylation (3A4). Each substrate was added at a concentration less than or equal to the Km for themetabolic pathway, and microsomal protein concentrations and assay incubation times were optimized for each reaction to ensure linear metabolite formation based on initial rates (Table 1). Microsomes were suspended in phosphate buffer and incubated at 37 °C in the presence of probe substrates. Reactions were initiated by the addition of an NADPH-regenerating buffer system and were quenched at the appropriate times using acetonitrile. Samples were centrifuged and concentrations of metabolites assessed by LC/MS.

Cytochrome P450 2C19 = Cytochrome P450 2C19 (Homo sapiens, UniProt P33261); assay: CYP Activity Assay; settings: 37 °C
Experimental: as §1

Cytochrome P450 2C9 = Cytochrome P450 2C9 (Homo sapiens, UniProt P11712); assay: CYP Activity Assay; settings: 37 °C
Experimental: as §1

Cytochrome P450 2D6 = Cytochrome P450 2D6 (Homo sapiens, UniProt P10635); assay: CYP Activity Assay; settings: 37 °C
Experimental: as §1

[1] = biological target: T2, Lanosterol 14-alpha demethylase (Homo sapiens, UniProt Q16850); assay: CYP51 Inhibition Assay; settings: pH 7.4; 37 °C
T2 sequence (Q16850 whole entry): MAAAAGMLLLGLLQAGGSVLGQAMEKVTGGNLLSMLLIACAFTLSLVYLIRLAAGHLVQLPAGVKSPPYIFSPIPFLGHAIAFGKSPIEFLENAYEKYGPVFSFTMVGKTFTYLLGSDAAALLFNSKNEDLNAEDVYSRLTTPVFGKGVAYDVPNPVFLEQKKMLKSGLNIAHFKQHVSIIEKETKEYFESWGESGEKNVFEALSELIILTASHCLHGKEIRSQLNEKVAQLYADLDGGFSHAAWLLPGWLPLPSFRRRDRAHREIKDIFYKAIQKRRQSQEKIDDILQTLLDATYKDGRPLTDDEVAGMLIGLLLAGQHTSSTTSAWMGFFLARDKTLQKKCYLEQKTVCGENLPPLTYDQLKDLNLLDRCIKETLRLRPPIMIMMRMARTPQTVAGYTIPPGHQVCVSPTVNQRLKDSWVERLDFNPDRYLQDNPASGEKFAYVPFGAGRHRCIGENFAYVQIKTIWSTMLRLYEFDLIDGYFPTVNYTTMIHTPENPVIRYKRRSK
Experimental: (§2) Briefly, the reaction mixture contained 1 uM CYP51, 2 uM cytochrome P450 reductase, 100 uM dilauroyl-alpha-phosphatidylcholine, 0.4 mg/ml isoctrate dehydrogenase, and 25mM sodium isocitrate in 20mM MOPS (pH 7.4), 50 mM KCl, 5 mM MgCl2, and 10% glycerol. After the addition of the 3H-radiolabeled sterol substrate (~2000 cpm/nmol, final concentration 50 uM) the mixture was preincubated for 5 min at 37 °C in a shaking water bath (GCA Precision Scientific). The reaction was initiated by the addition of 100 uM NADPH and stopped by extraction of the sterols with ethyl acetate. The reaction products were dried, dissolved in methanol, and analyzed by a reverse-phase HPLC system (Waters) equipped with a beta-RAM detector (INUS Systems, Inc.) using a Nova-Pak C18 column (particle size 4 uM, 3.9 x 150 mm) and a linear gradient consisting of water:acetonitrile:methanol (1.0:4.5:4.5) (solvent A) and methanol (solvent B) at a flow rate of 1 ml/min.

[2] = biological target: Putative lanosterol 14-alpha-demethylase (Leishmania infantum, UniProt A2TEF2); assay: CYP51 Inhibition Assay; settings: pH 7.4; 37 °C
Experimental: as §2

[3] = biological target: Sterol 14-alpha demethylase (Trypanosoma cruzi (strain CL Brener), UniProt Q7Z1V1); assay: CYP51 Inhibition Assay; settings: pH 7.4; 37 °C
Experimental: as §2

Cytochrome P450 3A4 = Cytochrome P450 3A4 (Homo sapiens, UniProt P08684); assay: CYP Activity Assay; settings: 37 °C
Experimental: as §1

Chain of Sterol 14-alpha demethylase (Q7Z1V1 whole entry): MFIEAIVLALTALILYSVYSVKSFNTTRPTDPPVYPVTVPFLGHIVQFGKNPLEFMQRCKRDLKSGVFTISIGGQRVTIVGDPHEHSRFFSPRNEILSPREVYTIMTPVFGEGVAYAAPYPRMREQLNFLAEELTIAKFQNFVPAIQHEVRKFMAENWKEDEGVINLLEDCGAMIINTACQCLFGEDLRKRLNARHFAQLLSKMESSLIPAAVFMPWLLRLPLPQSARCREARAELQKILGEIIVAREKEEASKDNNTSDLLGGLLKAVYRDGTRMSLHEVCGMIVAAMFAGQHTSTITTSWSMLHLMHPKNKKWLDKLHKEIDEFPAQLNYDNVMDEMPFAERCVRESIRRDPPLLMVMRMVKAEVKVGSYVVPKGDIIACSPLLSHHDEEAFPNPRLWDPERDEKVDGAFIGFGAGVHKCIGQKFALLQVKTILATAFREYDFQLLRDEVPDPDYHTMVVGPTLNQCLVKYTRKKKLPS
Chain of Putative lanosterol 14-alpha-demethylase (A2TEF2 whole entry): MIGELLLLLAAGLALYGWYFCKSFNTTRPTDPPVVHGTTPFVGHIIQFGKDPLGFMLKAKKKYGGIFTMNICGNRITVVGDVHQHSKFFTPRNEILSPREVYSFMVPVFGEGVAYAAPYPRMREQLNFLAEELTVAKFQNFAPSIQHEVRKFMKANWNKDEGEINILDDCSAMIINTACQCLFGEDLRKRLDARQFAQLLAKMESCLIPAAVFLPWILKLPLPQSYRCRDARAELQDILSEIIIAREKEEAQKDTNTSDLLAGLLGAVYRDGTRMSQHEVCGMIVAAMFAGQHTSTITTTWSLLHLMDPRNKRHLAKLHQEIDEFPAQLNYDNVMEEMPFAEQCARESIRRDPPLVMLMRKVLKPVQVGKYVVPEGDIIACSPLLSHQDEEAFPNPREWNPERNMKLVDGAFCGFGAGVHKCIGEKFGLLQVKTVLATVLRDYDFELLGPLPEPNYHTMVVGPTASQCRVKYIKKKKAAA
Chain of Cytochrome P450 2C19 (P33261 whole entry): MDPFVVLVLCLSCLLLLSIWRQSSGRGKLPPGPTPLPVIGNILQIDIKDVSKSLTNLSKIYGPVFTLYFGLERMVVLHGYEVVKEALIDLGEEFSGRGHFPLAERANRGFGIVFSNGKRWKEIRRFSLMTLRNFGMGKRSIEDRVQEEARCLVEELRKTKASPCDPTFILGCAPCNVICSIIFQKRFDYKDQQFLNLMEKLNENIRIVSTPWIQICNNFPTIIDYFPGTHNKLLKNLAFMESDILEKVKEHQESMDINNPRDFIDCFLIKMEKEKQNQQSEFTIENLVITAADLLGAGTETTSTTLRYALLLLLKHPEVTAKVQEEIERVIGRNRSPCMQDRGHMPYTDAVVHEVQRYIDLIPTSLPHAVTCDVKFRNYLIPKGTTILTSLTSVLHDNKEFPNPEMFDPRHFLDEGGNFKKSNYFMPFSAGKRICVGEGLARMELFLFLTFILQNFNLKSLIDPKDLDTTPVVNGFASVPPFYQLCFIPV
Chain of Cytochrome P450 2D6 (P10635 whole entry): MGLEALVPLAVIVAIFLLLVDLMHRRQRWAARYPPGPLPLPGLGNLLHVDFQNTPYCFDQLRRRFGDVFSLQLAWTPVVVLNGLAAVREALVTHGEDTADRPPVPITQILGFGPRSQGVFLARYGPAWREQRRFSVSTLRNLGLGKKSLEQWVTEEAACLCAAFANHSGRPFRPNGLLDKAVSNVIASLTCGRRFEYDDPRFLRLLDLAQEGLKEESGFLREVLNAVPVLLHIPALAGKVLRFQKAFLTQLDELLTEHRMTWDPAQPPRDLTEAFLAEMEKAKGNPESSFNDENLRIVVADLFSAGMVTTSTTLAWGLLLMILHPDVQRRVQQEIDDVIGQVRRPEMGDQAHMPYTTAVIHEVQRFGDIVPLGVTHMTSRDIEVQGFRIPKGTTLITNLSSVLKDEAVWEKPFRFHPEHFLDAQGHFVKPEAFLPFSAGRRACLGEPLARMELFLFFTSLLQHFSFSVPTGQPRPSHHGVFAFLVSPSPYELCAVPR
Chain of Cytochrome P450 2C9 (P11712 whole entry): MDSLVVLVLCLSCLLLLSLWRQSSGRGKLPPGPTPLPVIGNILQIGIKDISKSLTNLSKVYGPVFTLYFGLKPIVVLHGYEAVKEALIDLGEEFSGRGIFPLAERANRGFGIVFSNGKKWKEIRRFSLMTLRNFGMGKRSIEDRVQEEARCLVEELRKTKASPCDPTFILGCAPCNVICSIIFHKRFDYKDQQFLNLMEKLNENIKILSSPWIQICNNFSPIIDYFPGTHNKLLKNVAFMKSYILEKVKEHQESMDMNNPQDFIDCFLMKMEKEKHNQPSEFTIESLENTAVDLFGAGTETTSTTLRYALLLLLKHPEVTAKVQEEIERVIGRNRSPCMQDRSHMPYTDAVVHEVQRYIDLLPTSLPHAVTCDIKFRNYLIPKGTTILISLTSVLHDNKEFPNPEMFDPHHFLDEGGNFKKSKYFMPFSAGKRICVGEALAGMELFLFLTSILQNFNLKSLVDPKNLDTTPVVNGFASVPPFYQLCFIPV
Chain of Cytochrome P450 3A4 (P08684 whole entry): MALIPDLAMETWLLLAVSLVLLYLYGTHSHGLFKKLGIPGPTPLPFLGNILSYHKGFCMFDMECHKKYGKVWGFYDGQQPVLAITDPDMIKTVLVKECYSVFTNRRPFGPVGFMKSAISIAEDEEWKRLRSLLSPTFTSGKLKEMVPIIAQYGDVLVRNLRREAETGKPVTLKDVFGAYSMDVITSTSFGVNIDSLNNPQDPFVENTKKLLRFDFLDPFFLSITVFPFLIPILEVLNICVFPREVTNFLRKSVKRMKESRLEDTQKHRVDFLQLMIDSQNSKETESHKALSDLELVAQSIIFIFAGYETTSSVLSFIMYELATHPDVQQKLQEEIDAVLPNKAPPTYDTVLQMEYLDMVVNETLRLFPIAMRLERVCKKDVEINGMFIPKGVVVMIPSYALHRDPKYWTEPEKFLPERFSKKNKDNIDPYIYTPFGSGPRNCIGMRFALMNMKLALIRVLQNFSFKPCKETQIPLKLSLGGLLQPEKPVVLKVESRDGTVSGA

Row | Compound | pIC50 (Cytochrome P450 1A2) | pIC50 (Cytochrome P450 2C19) | pIC50 (Cytochrome P450 2C9) | pIC50 (Cytochrome P450 2D6) | pKd [1] | pKd [2] | pKd [3] | pIC50 (Cytochrome P450 3A4)
1 | FC(F)(F)c1ccc(N(c2cccnc2)C2CCN(c3ccc(C(F)(F)F)cn3)CC2)cc1 [EPL-BS0967 (UDD)] | < 4.70 | 5.01 | 5.09 | 4.70 | 7.59 | 6.38 | 7.49 | –
2 | O=C([C@@H](c1ccc(Cl)cc1)c1cccnc1)N1CCN(c2ccc(C(F)(F)F)cc2)CC1 [EPL-BS1246 (UDO)] | < 4.70 | 4.92 | 5.05 | 5.40 | 7.16 | 6.81 | 7.72 | 4.70
3 | CC[C@@H]([C@H](C)O)n1ncn(-c2ccc(N3CCN(c4ccc(OCC5CO[C@@](Cn6cncn6)(c6ccc(F)cc6F)C5)cc4)CC3)cc2)c1=O (some centres not stated) [Posaconazole] | – | – | – | – | – | 7.74 | – | –
4 | O=C(N[C@@H](Cn1ccnc1)c1ccc(Cl)cc1Cl)c1ccc(-c2nnc(-c3ccccc3)o2)cc1 [VNI] | – | – | – | – | – | – | 7.82 | –
